Measurements from patent US20250179033A1 (priority 2021, published 2025).
Like-named read-outs stand apart in the source and are kept apart here.

What was measured:
Format in all cases: cell-based
HIV-1 IIIB (wild-type) = assay: HIV inhibition assay in TZM-bl cells, wild-type; conditions: Human immunodeficiency virus 1, IIIB, read-out: IC50 (TZM, WT)
Procedure: (§1) Cells and virus culture: TZM-bl cells (42), HIV-1 IIIB virus (43-45) and HIV-1 IIIB (A17 variant) virus (46) as well are the NNRTI resistant mutants (strain NL4-3) (47) were obtained from the NIH HIV Reagent Program. H9 [derivative of HuT 78]cells (ATCC® HTB176™) were obtained from the American Type Culture Collection (Manassas, Virginia, United States of America). These viruses were grown in H9 cells to high titer, which was tested using a HIV p24 (high sensitivity) The detection kit used was sold under the tradename ALPHALISA® Detection Kit (PerkinElmer, Waltham, Massachusetts, United States of America). The viruses were concentrated using Lenti-X Concentrator (Takara Bio USA, Inc., Mountain View, California, United States of America). Infections of TZM-bl cells with either virus was facilitated with 15 μg/mL DEAE-dextran.
(§2) Compounds were serially diluted starting with 10 mM stocks in DMSO. DMSO concentrations were kept the same for all dilutions used within an assay (either 0.005% or 0.05% depending on highest concentration used). Duplicate 96-well plates were set up with 25 μL compound dilution, 25 μL virus, and 50 μL TZM-bl cells (2×10^5/mL) with DEAE-dextran and incubated at 37° C. 5% CO2 for 48 hr. All compounds were tested in triplicate, with single wells of efavirenz dilutions on each plate. All plates had 3-5 control wells without compound, 1 control well with no cells, and 1 control well with a highly toxic level of DMSO (9%). Inhibition assays were set up in clear tissue-culture treated plates with lysates moved to black assay plates or were set up in black tissue culture-treated plates. Medium was removed and the cells were lysed with Glo Lysis Buffer (Promega, Madison, Wisconsin, United States of America). Luciferase Assay System reagent (Promega, Madison, Wisconsin, United States of America) was added to cells and relative light units (RLU) was measured using an EnSpire instrument (PerkinElmer, Waltham, Massachusetts, United States of America). Toxicity assays were set up in clear tissue culture-treated plates. CellTiter-Blue Cell Viability Assay reagent (Promega) was added to the wells after 46 hr incubation, followed by 2 hr incubation. Sodium lauryl sulfate was added to 1.5% to stop the reaction and the plates were measured for fluorescence (560 nmEx/590 nmEm) using an EnSpire instrument (PerkinElmer, Waltham, Massachusetts, United States of America).

[1] = tested on: HIV-1 IIIB A17 variant (Y181C/K103N); assay: HIV inhibition assay in TZM-bl cells, A17 variant; conditions: Human immunodeficiency virus 1, IIIB, TZM-bl, read-out: IC50 (TZM, A17), Table 3, TZM-bl, ± SEM, minimum 6 replicates
Procedure: as §1, §2

TZM-bl cells = assay: Toxicity assay in TZM-bl cells
Procedure: as §2

[2] = Table 3, TZM-bl, ± SEM, minimum 6 replicates

N#Cc1ccc(Nc2nc(N)n(S(=O)(=O)c3ccc4ccccc4c3)n2)cc1Cl [Compound 3, 4-[[5-amino-1-(2-naphthylsulfonyl)-1,2,4-triazol-3-yl]amino]-2-chloro-benzonitrile]
IC50 (HIV-1 IIIB (wild-type)): 1.57 ± 0.19 nM
IC50 [1]: 573 ± 130 nM
Qualitative Cell Toxicity within inhibition range (TZM-bl cells; Table 3, TZM-bl): None

Cc1cc(C#N)ccc1Nc1nc(N)n(S(=O)(=O)c2cccc3cc(C#N)ccc23)n1 [Compound 4, 5-[[5-amino-3-(4-cyano-2-methyl-anilino)-1,2,4-triazol-1-yl]sulfonyl]naphthalene-2-carbonitrile]
IC50 (HIV-1 IIIB (wild-type); [2]): 13.8 ± 2.64 nM
IC50 [1]: 287 ± 69.5 nM
Qualitative Cell Toxicity within inhibition range (TZM-bl cells): None

CC(C)(C)c1ccc(S(=O)(=O)n2nc(Nc3ccc(Cl)cc3)nc2N)cc1 [Compound 6, 1-(4-tert-butylphenyl)sulfonyl-N3-(4-chlorophenyl)-1,2,4-triazole-3,5-diamine]
IC50 (HIV-1 IIIB (wild-type); [2]): 70.2 ± 10.5 nM
IC50 [1]: 295 ± 56.5 nM
Qualitative Cell Toxicity within inhibition range (TZM-bl cells): None

Nc1nc(Nc2ccc(Cl)cc2)nn1S(=O)(=O)c1ccc(Br)cc1F [Compound 7, 1-(4-bromo-2-fluoro-phenyl)sulfonyl-N3-(4-chlorophenyl)-1,2,4-triazole-3,5-diamine]
IC50 (HIV-1 IIIB (wild-type); [2]): 19.2 ± 2.83 nM
IC50 [1]: 562 nM
Qualitative Cell Toxicity within inhibition range (TZM-bl cells): None

N#Cc1ccc(Nc2nc(N)n(S(=O)(=O)c3c(Cl)nc4sccn34)n2)cc1 [Compound 8, 4-[[5-amino-1-(6-chloroimidazo[2,1-b]thiazol-5-yl)sulfonyl-1,2,4-triazol-3-yl]amino]-benzonitrile]
IC50 (HIV-1 IIIB (wild-type); [2]): 1.77 ± 0.327 nM
IC50 [1]: 705 ± 1010 nM
Qualitative Cell Toxicity within inhibition range (TZM-bl cells): None

N#Cc1ccc(Nc2nc(N)n(S(=O)(=O)c3cccc(C#N)c3)n2)cc1 [Compound 9, 3-[[5-amino-3-(4-cyanoanilino)-1,2,4-triazol-1-yl]sulfonyl]benzonitrile]
IC50 (HIV-1 IIIB (wild-type); [2]): 105 ± 24.3 nM
IC50 [1]: 709 ± 331 nM
Qualitative Cell Toxicity within inhibition range (TZM-bl cells): None

N#C/C=C/c1ccc(Nc2nc(N)n(S(=O)(=O)c3cccc4cc(C#N)ccc34)n2)cc1 [Compound 10, 5-[[5-amino-3-[4-[(E)-2-cyanovinyl]anilino]-1,2,4-triazol-1-yl]sulfonyl]naphthalene-2-carbonitrile]
IC50 (HIV-1 IIIB (wild-type); [2]): 1.52 ± 0.307 nM
IC50 [1]: 215 ± 57.4 nM
Qualitative Cell Toxicity within inhibition range (TZM-bl cells): None

N#Cc1ccc(Nc2nc(N)n(S(=O)(=O)c3c(Cl)nc4sccn34)n2)cc1Cl [Compound 11, 4-[[5-amino-1-(6-chloroimidazo[2,1-b]thiazol-5-yl)sulfonyl-1,2,4-triazol-3-yl]amino]-2-chloro-benzonitrile]
IC50 (HIV-1 IIIB (wild-type)): 0.98 ± 0.245 nM
IC50 [1]: 175 ± 178 nM
Qualitative Cell Toxicity within inhibition range (TZM-bl cells; Table 3, TZM-bl): Low

Cc1nc(C)c(S(=O)(=O)n2nc(Nc3ccc(C#N)c(Cl)c3)nc2N)s1 [Compound 12, 4-[[5-amino-1-(2,4-dimethylthiazol-5-yl)sulfonyl-1,2,4-triazol-3-yl]amino]-2-chloro-benzonitrile]
IC50 (HIV-1 IIIB (wild-type)): 0.879 ± 0.072 nM
IC50 [1]: 306 ± 107 nM
Qualitative Cell Toxicity within inhibition range (TZM-bl cells; Table 3, TZM-bl): None

N#CCc1ccc(Nc2nc(N)n(S(=O)(=O)c3cccc4cc(C#N)ccc34)n2)cc1 [Compound 13, 5-[[5-amino-3-[4-(cyanomethyl)anilino]-1,2,4-triazol-1-yl]sulfonyl]naphthalene-2-carbonitrile]
IC50 (HIV-1 IIIB (wild-type); [2]): 0.277 ± 0.0367 nM
IC50 [1]: 42.9 ± 34.7 nM
Qualitative Cell Toxicity within inhibition range (TZM-bl cells): None

N#CCc1ccc2c(S(=O)(=O)n3nc(Nc4ccc(C#N)c(Cl)c4)nc3N)cccc2c1 [Compound 16, 4-[[5-amino-1-[[6-(cyanomethyl)-1-naphthyl]sulfonyl]-1,2,4-triazol-3-yl]amino]-2-chloro-benzonitrile]
IC50 (HIV-1 IIIB (wild-type)): 0.598 ± 0.105 nM
IC50 [1]: 153 ± 59.2 nM
Qualitative Cell Toxicity within inhibition range (TZM-bl cells; Table 3, TZM-bl): None

Cc1nn(C)c(Cl)c1S(=O)(=O)n1nc(Nc2ccc(C#N)c(Cl)c2)nc1N [Compound 17, 4-[[5-amino-1-(5-chloro-1,3-dimethyl-pyrazol-4-yl)sulfonyl-1,2,4-triazol-3-yl]amino]-2-chloro-benzonitrile]
IC50 (HIV-1 IIIB (wild-type)): 0.305 ± 0.053 nM
IC50 [1]: 905 ± 392 nM
Qualitative Cell Toxicity within inhibition range (TZM-bl cells; Table 3, TZM-bl): None

Nc1nc(Nc2ccc(Cl)c(Cl)c2)nn1S(=O)(=O)c1cccc2ccccc12 [Compound 22, N3-(3,4-dichlorophenyl)-1-(1-naphthylsulfonyl)-1,2,4-triazole-3,5-diamine]
IC50 (HIV-1 IIIB (wild-type)): 4.68 ± 0.572 nM
IC50 [1]: > 1000 nM
Qualitative Cell Toxicity within inhibition range (TZM-bl cells; Table 3, TZM-bl): None

CN(C)c1cccc2c(S(=O)(=O)n3nc(Nc4ccc(Cl)cc4)nc3N)cccc12 [Compound 23, N3-(4-chlorophenyl)-1-[[5-(dimethylamino)-1-naphthyl]sulfonyl]-1,2,4-triazole-3,5-diamine]
IC50 (HIV-1 IIIB (wild-type); [2]): 10.3 ± 2.01 nM
IC50 [1]: > 1000 nM
Qualitative Cell Toxicity within inhibition range (TZM-bl cells): None

C=CC(=O)N(C)c1ccc(S(=O)(=O)n2nc(Nc3ccc(C#N)cc3)nc2N)cc1 [Compound 24, N-[4-[[5-amino-3-(4-cyanoanilino)-1,2,4-triazol-1-yl]sulfonyl]phenyl]-N-methyl-prop-2-enamide]
IC50 (HIV-1 IIIB (wild-type); [2]): 7.88 ± 0.643 nM
Qualitative Cell Toxicity within inhibition range (TZM-bl cells): None

Nc1nc(Nc2ccc(Cl)cc2)nn1S(=O)(=O)c1ccc2cc(Cl)ccc2c1 [Compound 25, 1-[(6-chloro-2-naphthyl)sulfonyl]-N3-(4-chlorophenyl)-1,2,4-triazole-3,5-diamine]
IC50 (HIV-1 IIIB (wild-type); [2]): 4.54 ± 0.33 nM
Qualitative Cell Toxicity within inhibition range (TZM-bl cells): None

C=CC(=O)Nc1cc(C)c(S(=O)(=O)n2nc(Nc3ccc(Cl)cc3)nc2N)c(C)c1 [Compound 26, N-[4-[[5-amino-3-(4-chloroanilino)-1,2,4-triazol-1-yl]sulfonyl]-3,5-dimethyl-phenyl]prop-2-enamide]
IC50 (HIV-1 IIIB (wild-type); [2]): 5.78 ± 0.476 nM
Qualitative Cell Toxicity within inhibition range (TZM-bl cells): None

Cc1cc(S(=O)(=O)n2nc(Nc3ccc(Cl)nc3)nc2N)c(C)cc1Cl [Compound 27, 1-(4-chloro-2,5-dimethyl-phenyl)sulfonyl-N3-(6-chloro-3-pyridyl)-1,2,4-triazole-3,5-diamine]
IC50 (HIV-1 IIIB (wild-type); [2]): 34.3 ± 9.91 nM
IC50 [1]: > 1000 nM
Qualitative Cell Toxicity within inhibition range (TZM-bl cells): None

Cn1cnc(S(=O)(=O)n2nc(Nc3ccc(Cl)cc3)nc2N)c1 [Compound 28, N3-(4-chlorophenyl)-1-(1-methylimidazol-4-yl)sulfonyl-1,2,4-triazole-3,5-diamine]
IC50 (HIV-1 IIIB (wild-type); [2]): 83.7 ± 19.3 nM
Qualitative Cell Toxicity within inhibition range (TZM-bl cells): None

Nc1nc(Nc2ccc(Cl)cc2)nn1S(=O)(=O)c1cnc(Cl)c(Br)c1 [Compound 29, 1-[(5-bromo-6-chloro-3-pyridyl)sulfonyl]-N3-(4-chlorophenyl)-1,2,4-triazole-3,5-diamine]
IC50 (HIV-1 IIIB (wild-type); [2]): 14.3 ± 7.27 nM
Qualitative Cell Toxicity within inhibition range (TZM-bl cells): None

Nc1nc(Nc2ccc(Cl)cc2)nn1S(=O)(=O)c1ccc(-c2ccc(F)cc2)cc1 [Compound 30, N3-(4-chlorophenyl)-1-[4-(4-fluorophenyl)phenyl]sulfonyl-1,2,4-triazole-3,5-diamine]
IC50 (HIV-1 IIIB (wild-type); [2]): 21.5 ± 4.42 nM
Qualitative Cell Toxicity within inhibition range (TZM-bl cells): None

Cc1cc(C)c(Nc2nc(N)n(S(=O)(=O)c3ccc(Br)c(C)c3)n2)c(C)c1 [Compound 31, 1-(4-bromo-3-methyl-phenyl)sulfonyl-N3-(2,4,6-trimethylphenyl)-1,2,4-triazole-3,5-diamine]
IC50 (HIV-1 IIIB (wild-type); [2]): 19.4 ± 3.67 nM
Qualitative Cell Toxicity within inhibition range (TZM-bl cells): None

CC(=O)N1CCc2cc(S(=O)(=O)n3nc(Nc4ccc(Cl)cc4)nc3N)ccc21 [Compound 34, 1-[5-[[5-amino-3-(4-chloroanilino)-1,2,4-triazol-1-yl]sulfonyl]indolin-1-yl]ethanone]
IC50 (HIV-1 IIIB (wild-type); [2]): 92.6 ± 15.5 nM
Qualitative Cell Toxicity within inhibition range (TZM-bl cells): None

Nc1nc(Nc2ccc(Cl)cc2)nn1S(=O)(=O)CCN1C(=O)c2ccccc2C1=O [Compound 35, 2-[2-[[5-amino-3-(4-chloroanilino)-1,2,4-triazol-1-yl]sulfonyl]ethyl]isoindoline-1,3-dione]
IC50 (HIV-1 IIIB (wild-type); [2]): 14.3 ± 7.27 nM
Qualitative Cell Toxicity within inhibition range (TZM-bl cells): None

Cc1nc(C)c(S(=O)(=O)n2nc(Nc3ccc(Cl)cc3)nc2N)s1 [Compound 36, N3-(4-chlorophenyl)-1-(2,4-dimethylthiazol-5-yl)sulfonyl-1,2,4-triazole-3,5-diamine]
IC50 (HIV-1 IIIB (wild-type); [2]): 44.1 ± 12.8 nM
IC50 [1]: > 1000 nM
Qualitative Cell Toxicity within inhibition range (TZM-bl cells): None
